Reference: patent EP0929299B1, “SUBSTITUTED 1,2,3,4-TETRAHYDRO-2-DIBENZOFURANAMINES AND 2-AMINOCYCLOHEPTA(b)BENZOFURANS” (ELI LILLY AND COMPANY, priority 1996, dated 1998)

System: neuronal protein extravasation
Test: Neuronal protein extravasation in dura after electrical stimulation of the trigeminal ganglion (Evans Blue)
Format: in vivo, Harlan Sprague-Dawley rats or guinea pigs
Description: Harlan Sprague-Dawley rats (225-325 g) or guinea pigs from Charles River Laboratories (225-325 g) were anesthetized with sodium pentobarbital intraperitoneally (65 mg/kg or 45 mg/kg respectively) and placed in a stereotaxic frame (David Kopf Instruments) with the incisor bar set at - 3.5 mm for rats or -4.0 mm for guinea pigs. Following a midline sagital scalp incision, two pairs of bilateral holes were drilled through the skull (6 mm posteriorly, 2.0 and 4.0 mm laterally in rats; 4 mm posteriorly and 3.2 and 5.2 mm laterally in guinea pigs, all coordinates referenced to bregma). Pairs of stainless steel stimulating electrodes (Rhodes Medical Systems, Inc.) were lowered through the holes in both hemispheres to a depth of 9 mm (rats) or 10.5 mm (guinea pigs) from dura.
The femoral vein was exposed and a dose of the test compound was injected intravenously (1 mL/kg). […]
A fluorescence microscope (Zeiss) equipped with a grating monochromator and a spectrophotometer was used to quantify the amount of Evans Blue dye in each sample. An excitation wavelength of approximately 535 nm was utilized and the emission intensity at 600 nm was determined. […] This facilitated the computer-controlled movement of the stage with fluorescence measurements at 25 points (500 µm steps) on each dural sample. The mean and standard deviation of the measurements was determined by the computer. […]

| Compound | Inhibition of Protein Extravasation i.v. ID50 (mMol/kg) (iv) | Inhibition of Protein Extravasation i.v. ID50 (i.v., 10 minutes before stimulation of the trigeminal ganglion, species (rat or guinea pig) not given, ID50 approximated from dose-response curve) [mmol/kg] |
| --- | --- | --- |
| CCN(CC)C1CCc2cccc(Cl)c2C1.Cl (centres unmarked) [Compound IV, 8-chloro-2-diethylamino-1,2,3,4-tetrahydronaphthalene hydrochloride] | 1.2x10-^7 mMol/kg | – |
| O=C(O)C(=O)O.Oc1ccc2[nH]cc(C3CCNCC3)c2c1 [Compound III, 5-hydroxy-3-(4-piperidinyl)-1H-indole oxalate] | – | 8.9e-09 |
